In patent US20150299250A1, “MACROCYCLIC COMPOUNDS AND USES THEREOF” (ADELAIDE RESEARCH & INNOVATION PTY LTD, priority 2012, published 2015):
pIC50: −log10 of the molar value. Where a SMILES comes first, the peptide text is derived from it. The star is where a group is joined. Cbz = O=C(OCc1ccccc1)*

Columns and labels:
[1] = test system: VH-64 Ewing's sarcoma cells; test: Cell viability assay (7AAD, 48 hours), VH-64; format: cell-based; conditions: 48 hours exposure; read-out: Cancer cell lines IC50 (μM) VH-64
Protocol: (§1) Cell viability assays were performed as previously described. Briefly, cells were seeded in 96 well microtiterplates at a density of 3×10^4 cells per well in the presence of the indicated chemical. Cells were harvested 48 hours post-treatment, centrifuged at 1,300×g, washed in phosphate-buffered saline (PBS) and stained with 7AAD solution (2 μg/mL) (7-amino-actinomycin-D, Invitrogen, Carlsbad, Calif.) for 10 mins at room temperature. Viable cells were determined with the use of a FACS Calibur flow cytometer (Becton Dickinson Immunocytometry Systems), and analyzed with the use of FLOWJO (Tree Star, Inc) and GraphPad Prism (GraphPad Software Inc).
(§2) WE-68 and VH-64 Ewing's sarcoma cells were kindly supplied by F. van Valen (Department of Orthopaedic Surgery, Westfalische-Wilhelms-University, Germany).TC-252 and STA-ET-1 Ewing's sarcoma cells were kindly provided by G. Hamilton (Department of Surgery, University of Vienna, Austria) or P. Ambros (Children's Cancer Research Institute, St Anna Children's Hospital, Vienna, Austria). Primary human embryonic fibroblasts or primary human osteoblasts were collected from the Women's and Children's Hospital (North Adelaide, South Australia, Australia) or Royal Adelaide Hospital with patient consent. Mouse Embryonic Fibroblasts (MEFs) and its p53-null derivative were kindly supplied by Guillermina Lozano (Department of Genetics, Anderson Cancer Centre, University of Texas, Houston, Tex., USA). WE-68 cell lines were grown in RPMI-1640 media, whilst human embryonic fibroblasts and MEFs were grown in Dulbecco's Modified Eagle's Medium (DMEM). Media was supplemented with 10% FCS, 1% PSG and 10 mM HEPES. All cells were maintained at 37° C. in a humidified atmosphere of 5% CO2.

[2] = test system: TC-252 Ewing's sarcoma cells; test: Cell viability assay (7AAD, 48 hours), TC-252; format: cell-based; conditions: 48 hours exposure; read-out: Cancer cell lines IC50 (μM) TC-252
Protocol: as §1, §2

[3] = molecular target: T1, 20S proteasome CP-L activity (Oryctolagus cuniculus, UniProt A0A5F9DQW2); test: In vitro proteasome activity assay, CP-L (Z-nLPnLD-AMC); format: biochemical, rabbit; conditions: purified 20S proteasome; highest concentration tested 25,000 nM
T1 construct: Purified rabbit 20S proteasome
T1 sequence (A0A5F9DQW2 1-212): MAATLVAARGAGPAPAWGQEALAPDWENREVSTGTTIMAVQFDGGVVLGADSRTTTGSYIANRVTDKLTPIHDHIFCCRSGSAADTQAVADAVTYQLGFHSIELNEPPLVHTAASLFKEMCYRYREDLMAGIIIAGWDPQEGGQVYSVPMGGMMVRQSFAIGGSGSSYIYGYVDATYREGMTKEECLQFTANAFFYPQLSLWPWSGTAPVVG
Protocol: We initially determined the ability of the novel tripeptide MG132 analogues 1-6 and the macrocycles 3a and 4a to inhibit the three separate protease activities of the 20S proteasome (CT-L, -T-L and CP-L). The assays were performed in vitro using purified 20S proteasome/inhibitor mixtures, with the activity of each subunit of the proteasome assessed upon incubation with its respective target peptide. […] In addition, there is no apparent clear-cut preference for the length of tether (compare compounds 1 to 4), while the introduction of an aryl group at P3 (as in 6) is well tolerated.
Purified rabbit 20S proteasome and fluorogenic CT-L substrate (Suc-LLVY-AMC) were purchased from Boston Biochem (Cambridge, Mass., USA). The T-L and CP-L fluorogenic substrates (Ac-RLR-AMC and Z-nLPnLD-AMC) were purchased from Enzo Life Sciences (Farmingdale, N.Y., USA). The 20S proteasome was diluted to 0.2 μg/μL in 20S proteasome buffer (50 mM HEPES pH 7.6, 150 mM NaCl and 1 mM DDT) and stored at −80° C. Purified 20S proteasome (8 ng) was pre-incubated with the indicated concentrations of inhibitors for 15 minutes and subsequently added to the AMC-labeled substrate peptide (50 μM) in assay buffer (25 mM HEPES, pH 7.5, 0.5 mM EDTA, 0.05% NP-40, and 0.001% SDS (w/v)) at 37° C. for 2 hours. Fluorescent substrate cleavage by the 20S proteasome was linear during this incubation timeframe (Supplementary Figure S4. Hydrolysed 7-amino-4-methylcoumarin (AMC) was subsequently detected with the FLUOstar OPTIMA microplatefluorometer at excitation/emission of 390/460 nm. The activity was estimated in relative fluorescence units and half of the maximal inhibitory activity of the proteasome is represented by IC50 values. A minimum of three biological replicates were performed for each data point.

[4] = test system: primary human embryonic fibroblasts; test: Cell viability assay (7AAD, 48 hours), normal fibroblasts; format: cell-based; conditions: Fibroblast, 48 hours exposure, read-out: Normal cell lines IC50 (μM) Fibroblasts
Protocol: as §1, §2

[5] = test system: STA-ET-1 Ewing's sarcoma cells; test: Cell viability assay (7AAD, 48 hours), STA-ET-1; format: cell-based; conditions: 48 hours exposure; read-out: Cancer cell lines IC50 (μM) STA-ET-1
Protocol: as §1, §2

[6] = test system: MEF p53-/- (mouse embryonic fibroblasts lacking p53); test: Cell viability assay, MEF p53-/-; format: cell-based; conditions: for sensitivity of MEFs lacking p53 (p53-/-) to cytotoxic effects (in words): compared with p53+/+ MEFs
From the text: Although proteasome inhibitors have been translated from the bench to the clinic over the past decade, their specific mechanisms of action remain poorly understood. As discussed earlier, proteasomal over-activity in tumor cells has been attributed to aberrant degradation of numerous critical cancer-related pro proteins, including the pro-apoptotic tumor suppressor, p53. However, the role of p53 as a downstream mediator of cell death in response to proteasomal inhibition remains unclear. Therefore, we used our small library of CT-L specific proteasome inhibitors (compounds 1-6) to determine the role of p53 in their mechanism of cytotoxic action. For this purpose, we utilized mouse embryonic fibroblasts (MEFs) from transgenic p53^+/+ and p53^−/− littermates. This isogenic pair of cell lines are either competent (MEF p53^+/+) or deficient (MEF p53^−/−) in p53 protein and are used here to assess a potential role for p53 as a downstream inducer of cell death in response to proteasomal inhibition.
as §1
WE-68 and VH-64 Ewing's sarcoma cells were kindly supplied by F. van Valen (Department of Orthopaedic Surgery, Westfalische-Wilhelms-University, Germany).TC-252 and STA-ET-1 Ewing's sarcoma cells were kindly provided by G. Hamilton (Department of Surgery, University of Vienna, Austria) or P. Ambros (Children's Cancer Research Institute, St Anna Children's Hospital, Vienna, Austria). […]

[7] = test system: p53 protein; test: Western blot analysis of p53 protein expression in MEF p53+/+; format: cell-based, mouse; conditions: MEFs p53+/+, 16 hours treatment
Protocol: Dose-response curves are provided in Supplementary Figure S3. Compound 1 was not assayed using this system.
Western blot analyses were performed as previously described. Briefly, cells were harvested and lysed in 50 mM Tris-HCl (pH 7.5), 250 mM NaCl, 1 mM EDTA, 50 mM NaF, 0.5% TritonX-10, 0.5 mM Na3VO4 and 1× […] inhibitor (Roche, Indianapolis, Ind., USA). Lysates were incubated on ice for 8 minutes and sonicated using a Vibra-Cell VCX130 (Sonics & Materials, Inc) at 25% amplitude for 10 seconds. Protein concentrations were assayed with the bicinchoninic acid assay (Thermo Scientific, Massachusetts, USA) and subsequently resolved using a 10% SDS-PAGE gel. Proteins were transferred onto a nitrocellulose membrane (Hybond-C Extra, Amersham Biosciences), blocked (10% milk/TBST; 30 mins), hybridized with the appropriate primary or HRP-conjugated secondary antibody and subsequently visualized using Enhanced Chemiluminescence (Amersham Biosciences).
Antibodies used included a mouse anti-β-actin (Sigma), anti-p53 (1C12-mouse specific) (Cell Signalling, Danvers, Mass., USA), sheep anti-mouse IgG-HRP (Amersham Biosciences, Piscataway, N.J., USA), or donkey anti-rabbit IgG-HRP (Amersham Biosciences).

Structure (SMILES)	IC50 [1] [µM]	IC50 [2] [µM]	IC50 [3] [nM]	IC50 [4] [µM]	IC50 [5] [µM]	sensitivity of MEFs lacking p53 (p53-/-) to cytotoxic effects (in words) [6]	p53 protein levels [7]	pIC50 ([6]; Mus musculus, Fibroblast, read-out: IC50 in MEF p53-/-)
C#CCOc1ccc(C[C@@H](C=O)NC(=O)[C@H](CC(C)C)NC(=O)[C@H](CCN=[N+]=[N-])NC(=O)OCc2ccccc2)cc1 [Compound 2]	4.9	2.3	> 25000	29.4	5.4			
C#CCOc1ccc(C[C@@H](C=O)NC(=O)[C@H](CC(C)C)NC(=O)[C@H](CCCN=[N+]=[N-])NC(=O)OCc2ccccc2)cc1 [Compound 3]	2.1	1.2	> 25000	8.8	2.6			
C#CCOc1ccc(C[C@@H](C=O)NC(=O)[C@H](CC(C)C)NC(=O)[C@H](CCCCN=[N+]=[N-])NC(=O)OCc2ccccc2)cc1 [Compound 4]	1.9	1.6	> 25000	39.5	2.6			
C#CCOc1ccc(C[C@@H](C=O)NC(=O)[C@@H](NC(=O)[C@H](CCCCN=[N+]=[N-])NC(=O)OCc2ccccc2)[C@@H](C)CC)cc1 [Compound 5]	1.1	0.42	> 25000	19.9	1	resistant		
C#CCOc1ccc(C[C@@H](C=O)NC(=O)[C@H](CC(C)C)NC(=O)[C@H](Cc2ccc(N=[N+]=[N-])cc2)NC(=O)OCc2ccccc2)cc1 [Compound 6]	1.9	0.64	> 25000	45.4	2.4	resistant		
CC(C)C[C@@H](C=O)NC(=O)[C@H](CC(C)C)NC(=O)[C@H](CC(C)C)NC(=O)OCc1ccccc1 [MG132, reference compound] (Cbz-Leu-Leu-Leu-aldehyde)	0.68	0.49	545	2.8	0.59		increase p53 protein levels	6.03
